Like-named read-outs stand apart in the source and are kept apart here.
Assays:
[1] = format: physicochemical
Protocol: (§1) […] is also a weak base due to the presence of the imidazole ring. […] An acid modifier (or mixtures thereof) was added to the formulation in a molar equivalent relative to the amount of demiditraz to adjust the pH below 7.5 and reduce or eliminate the nucleophilic reaction between fipronil and demiditraz. The acid modifier includes both weak and strong acids. The weak acids include sugar acids (glyceric, gluconic, ascorbic, tartaric, and the like), carboxylic acid derivatives (mono-, di-, and tri-chloro acetic acid, and mono-, di-, and tri-fluoro acetic acid, benzoic, and the like) and mono-, di-, and tri-carboxylic acids. Non-exclusive examples of monocarboxylic acids include formic, acetic, propionic, butyric, oleic, valeric, caproic, enanthic, caprylic, linoleic, chloroacetic, dichloroacetic, oxalic, benzoic, pelargonic, capric, lauric, myristic, palmitic, stearic, and arachidic acid. Non-exclusive examples of di-carboxylic acids include oxalic, malonic, succinic, fumaric, aldaric, tartaric, glutaric, adipic, maleic, malic, pimelic, suberic, azelaic, sebacic, phthalic, isophtalic, and terephthalic acid. Non-exclusive examples of tri-carboxylic acids include citric, isocitric, aconitic, propane-1,2,3-tricarboxylic, and trimesic acid.

[2] = format: physicochemical; remark: listed apart in the source
Protocol: as §1
The addition of the weak acid in the formulation lowered the apparent pH of the formulation to about 6.5 to 7.5, however, fipronil degraded initially by about 5-6% followed by slower degradation to about 10-15% during an accelerated (70°) kinetic study. Strong acids (pka≦2) were added to the formulation to both lower apparent pH to about 2.5 to about 3.5 and to protonate demiditraz to prevent it from potentially acting as a nucleophile against fipronil. Non-exclusive examples of strong acids include inorganic acids (e.g., HCl, HBr, HI, HF, nitric acid, phosphoric acid, boric acid, sulfuric acid, and the like). Other strong acids include sulfonic acid and sulfonic acid derivatives thereof. Non-exclusive examples of sulfonic acid derivatives include methane-, ethane-, p-toluenesulfonic (p-TSA), and dodecylbenzenesulfonic acid. The use of a strong acid, e.g., p-TSA, increased fipronil stability, however, degradation was still about 5% after 12 weeks at 50° C.
The initial instability of fipronil was reduced to about ≦1% during an accelerated (70° C.) 1-week stability study for DPGMME with a strong acid and for NMP with a strong or weak acid.

pKa of demiditraz = format: physicochemical; conditions: weak base
Protocol: as §1

Row | Structure (SMILES) | pH levels at which fipronil degrades rapidly [1] | Fipronil initial degradation [2] | Fipronil slower degradation following the initial one [2] | Fipronil stability when formulated with demiditraz [2] | Fipronil degradation ([2]; 1 week) | Initial instability of fipronil ([2]; 1 week) | Fipronil degradation ([2]; 12 weeks) | pKa (pKa of demiditraz)
1 | N#Cc1nn(-c2c(Cl)cc(C(F)(F)F)cc2Cl)c(N)c1[S+]([O-])C(F)(F)F (centres unmarked) [fipronil] | above 7.5 | 5-6% | 10-15% | unstable | 3-6% | ≤ 1% | about 5% | 
2 | Cc1cccc([C@H](C)c2ncc[nH]2)c1C [Demiditraz, demiditraz] |  |  |  |  |  |  |  | 7.2

From patent US20120316210A1, “TOPICAL ANTIPARASITIC FORMULATIONS” (priority 2010, published 2012)
